Data from ChEMBL document CHEMBL3596172 (J Med Chem, 2015).
pKi: −log10 of the molar value.

Molecular target: D(3) dopamine receptor (Homo sapiens, UniProt P35462)
Experiment: biochemical
Description: Displacement of [3H]-N-methylspiperone from human dopamine D3 receptor (unknown origin) expressed in HEK293 cells after 1 hr by liquid scintillation counting

Chain of D(3) dopamine receptor (P35462 whole entry): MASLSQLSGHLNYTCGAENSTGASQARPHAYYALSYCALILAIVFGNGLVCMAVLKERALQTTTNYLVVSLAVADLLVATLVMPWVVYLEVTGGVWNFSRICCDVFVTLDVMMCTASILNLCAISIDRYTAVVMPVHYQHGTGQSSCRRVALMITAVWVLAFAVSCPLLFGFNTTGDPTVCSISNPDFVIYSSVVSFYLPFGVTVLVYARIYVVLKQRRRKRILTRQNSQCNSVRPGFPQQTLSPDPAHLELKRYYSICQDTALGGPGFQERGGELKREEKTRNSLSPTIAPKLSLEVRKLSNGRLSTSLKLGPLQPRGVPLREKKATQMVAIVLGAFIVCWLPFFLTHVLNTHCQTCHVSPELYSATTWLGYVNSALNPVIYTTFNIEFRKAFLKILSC

Row | pKi | Structure (SMILES)
1 | 7.50 | COc1c(Cl)cccc1N1CCN(CC(O)CCNC(=O)c2cnc3ccccc3c2)CC1 (stereo not given)
2 | 8.67 | COc1ccccc1N1CCN(CCCCNC(=O)c2cnc3ccc(F)cc3c2)CC1
3 | 7.35 | COc1ccccc1N1CCN(CC(O)CCNC(=O)c2cnc3ccc(F)cc3c2)CC1 (stereo not given)
4 | 7.28 | COc1ccccc1N1CCN(CC(O)CCNC(=O)c2cnc3ccc(C)cc3c2)CC1 (stereo not given)
5 | 7.16 | COc1ccc2ncc(C(=O)NCCC(O)CN3CCN(c4ccccc4OC)CC3)cc2c1 (stereo not given)
6 | 7.42 | COc1ccccc1N1CCN(CC(O)CCNC(=O)c2ccc3cccnc3c2)CC1 (stereo not given)

Continued, compound first:

Row | Structure (SMILES) | pKi
7 | COc1ccccc1N1CCN(CCCCNC(=O)c2ccc3ccccc3n2)CC1 | 8.46
8 | O=C(NCCCCN1CCN(c2cccc3ccccc23)CC1)c1cc2ccccc2o1 | 9.61
9 | O=C(NCCCCN1CCN(c2cccc(Cl)c2Cl)CC1)c1cnc2ccc(F)cc2c1 | 9.24
10 | O=C(NCCC(O)CN1CCN(c2cccc(Cl)c2Cl)CC1)c1cnc2ccc(F)cc2c1 (stereo not given) | 8.09
11 | COc1c(Cl)cccc1N1CCN(CCCCNC(=O)c2cc3ccccc3o2)CC1 | 9.04
12 | COc1ccc2[nH]c(C(=O)NCCCCN3CCN(c4cccc5ccccc45)CC3)cc2c1 | 9.76
13 | COc1ccccc1N1CCN(CC(O)CCNC(=O)c2ccc3ccccc3n2)CC1 (stereo not given) | 7.01
14 | COc1ccccc1N1CCN(CCCCNC(=O)c2ccc3cc(F)ccc3n2)CC1 | 8.60
15 | COc1ccccc1N1CCN(CC(O)CCNC(=O)c2ccc3cc(F)ccc3n2)CC1 (stereo not given) | 7.27
